Assays:
Hepatitis C virus [1] = assay: Antiviral activity against HCV genotype 1b Con1 expressing NS3 protease infected in human Huh7.5 cells assessed as reduction in viral RNA replication by luciferase reporter gene assay; format: functional, cell-based, Hepacivirus hominis; settings: genotype 1b Con1, Huh-7
[2] = Half life in human liver microsomes; format: ADME
[3] = Inhibition of recombinant full length HCV genotype 3a S52 NS3/4A protease preincubated for 30 mins followed by substrate addition measured by FRET assay; design: species or system Hepatitis C virus S52
[4] = Inhibition of recombinant full length HCV genotype 2b HC-J8 NS3/4A protease preincubated for 30 mins followed by substrate addition measured by FRET assay; design: species or system Hepatitis C virus subtype 2b
[5] = Half life in cannulated Sprague-Dawley rat plasma at 5 mg/kg, iv administered as 10 mins infusion by LC/MS/MS analysis; format: ADME, organism-based
[6] = Oral bioavailability in cannulated Sprague-Dawley rat plasma at 15 mg/kg administered via gavage measured up to 24 hrs post dose by LC/MS/MS analysis; format: ADME, organism-based
[7] = AUC in cannulated Sprague-Dawley rat plasma at 15 mg/kg administered via oral gavage measured up to 24 hrs post dose by LC/MS/MS analysis; format: ADME, organism-based; design: dose 15 mg/kg, time < 24 hr, route oral
[8] = Drug uptake in cannulated Sprague-Dawley rat liver at 15 mg/kg administered via oral gavage measured at 24 hrs post dose by LC/MS/MS analysis; format: ADME, organism-based; settings: read-out: Drug uptake
[9] = Half life in Beagle dog plasma at 1 mg/kg, iv administered as 5 mins infusion by LC/MS/MS analysis; format: ADME, organism-based, Canis lupus familiaris
[10] = Clearance in Beagle dog plasma at 1 mg/kg, iv administered as 5 mins infusion measured up to 24 hrs post dose by LC/MS/MS analysis; format: ADME, organism-based, Canis lupus familiaris
[11] = Oral bioavailability in Beagle dog plasma at 3 mg/kg administered via gavage measured up to 24 hrs post dose by LC/MS/MS analysis; format: ADME, organism-based, Canis lupus familiaris; settings: beagle, plasma
[12] = AUC in Beagle dog plasma at 3 mg/kg administered via oral gavage measured up to 24 hrs post dose by LC/MS/MS analysis; format: ADME, organism-based, Canis lupus familiaris; design: dose 3 mg/kg, time < 24 hr, route oral
[13] = Half life in cynomolgus monkey plasma at 3 mg/kg, iv administered as 5 mins infusion by LC/MS/MS analysis; format: ADME, organism-based, Macaca fascicularis
[14] = Clearance in cynomolgus monkey plasma at 3 mg/kg, iv administered as 5 mins infusion measured up to 24 hrs post dose by LC/MS/MS analysis; format: ADME, organism-based, Macaca fascicularis
[15] = Oral bioavailability in cynomolgus monkey plasma at 10 mg/kg administered via gavage measured up to 24 hrs post dose by LC/MS/MS analysis; format: ADME, organism-based, Macaca fascicularis; settings: plasma
[16] = AUC in cynomolgus monkey plasma at 10 mg/kg administered via oral gavage measured up to 24 hrs post dose by LC/MS/MS analysis; format: ADME, organism-based, Macaca fascicularis; design: dose 10 mg/kg, time < 24 hr, route oral; settings: plasma
[17] = Cardiotoxicity in rabbit heart assessed as change in sinoatrial node recovery time at 10 uM perfused for 20 mins measured for 1 min by electrophysiology method relative to control; format: toxicity, tissue-based, Oryctolagus cuniculus
[18] = Cytotoxicity against human HepG2 cells assessed as decrease in cell viability
[19] = Cytotoxicity against human HuH7 cells assessed as decrease in cell viability
[20] = Cytotoxicity against human HeLa cells assessed as decrease in cell viability
[21] = Cytotoxicity against human MRC5 cells assessed as decrease in cell viability
Salmonella typhimurium = assay: Genotoxicity in Salmonella typhimurium in presence of S9 fraction by Ames test; format: toxicity, organism-based; settings: salmonella enterica subsp. enterica serovar typhimurium
Rattus norvegicus = assay: Toxicity in rat at 30 to 300 mg/kg administered as single dose; format: organism-based; settings: in vivo
Homo sapiens = species on record: Homo sapiens; assay: Inhibition of sodium channel (unknown origin) at 10 uM at 4 Hz by patch clamp assay
[22] = Toxicity in cynomolgus monkey assessed as gastrointestinal irritation at 10 mg/kg, po administered through gavage; format: organism-based, Macaca fascicularis; settings: in vivo
[23] = Inhibition of recombinant full length HCV genotype 2b HC-J8 NS3 protease in genotype 2a replicon cells by luciferase reporter gene assay; format: cell-based, Hepatitis C virus subtype 2b; settings: Hepatitis C virus
[24] = Cardiotoxicity in anesthetized rabbit assessed as effect on PR interval at 30 mg/kg, iv administered as 10 mins infusion measured up to 60 mins post dose by electrophysiology assay; format: toxicity, organism-based, Oryctolagus cuniculus; settings: in vivo
[25] = Cardiotoxicity in anesthetized rabbit assessed as prolongation of QTcf interval at 30 mg/kg, iv administered as 10 mins infusion by electrophysiology assay; format: toxicity, organism-based, Oryctolagus cuniculus; settings: in vivo
[26] = Cardiotoxicity in dog assessed as prolongation of QTcv interval at 30 to 100 mg/kg administered as single dose by electrophysiology assay; format: toxicity, organism-based, Canis lupus familiaris; settings: in vivo
[27] = Cardiotoxicity in dog assessed as prolongation of QTcf interval at 30 to 100 mg/kg administered as single dose by electrophysiology assay; format: toxicity, organism-based, Canis lupus familiaris; settings: in vivo
[28] = Cardiotoxicity in dog assessed as effect on QRS interval at 30 to 100 mg/kg administered as single dose by electrophysiology assay; format: toxicity, organism-based, Canis lupus familiaris; settings: in vivo
[29] = Cardiotoxicity in dog assessed as effect on PR interval at 30 to 100 mg/kg administered as single dose by electrophysiology assay; format: toxicity, organism-based, Canis lupus familiaris; settings: in vivo
[30] = Cardiotoxicity in dog assessed as effect on heart rate at 30 to 100 mg/kg administered as single dose by electrophysiology assay; format: toxicity, organism-based, Canis lupus familiaris; settings: in vivo
[31] = Cardiotoxicity in dog assessed as effect on sinoatrial node recovery time at 30 to 100 mg/kg administered as single dose by electrophysiology assay; format: toxicity, organism-based, Canis lupus familiaris; settings: in vivo
[32] = Inhibition of recombinant full length HCV genotype 1a H77 NS3/4A protease preincubated for 30 mins followed by substrate addition measured by FRET assay; design: species or system Hepatitis C virus (isolate H77)
[33] = Inhibition of recombinant full length HCV genotype 1b J4L6S NS3/4A protease preincubated for 30 mins followed by substrate addition measured by FRET assay; design: species or system Hepatitis C virus subtype 1b
[34] = Inhibition of recombinant full length HCV genotype 2a HC-J6 NS3/4A protease preincubated for 30 mins followed by substrate addition measured by FRET assay; design: species or system Hepatitis C virus subtype 2a
[35] = Inhibition of recombinant full length HCV genotype 4a ED43 NS3/4A protease preincubated for 30 mins followed by substrate addition measured by FRET assay; design: species or system Hepatitis C virus ED43
[36] = Inhibition of recombinant full length HCV genotype 5a SA13 NS3/4A protease preincubated for 30 mins followed by substrate addition measured by FRET assay; design: species or system Hepatitis C virus SA13
[37] = Inhibition of recombinant full length HCV genotype 6a HK-6A NS3/4A protease preincubated for 30 mins followed by substrate addition measured by FRET assay; design: species or system Hepatitis C virus subtype 6a
[38] = Inhibition of recombinant full length HCV genotype 4a ED43 NS3 protease in genotype 1b con1 replicon cells by luciferase reporter gene assay; settings: Hepatitis C virus
[39] = Inhibition of recombinant full length HCV genotype 3a S52 NS3 protease in genotype 2a replicon cells by luciferase reporter gene assay; format: cell-based; settings: Hepatitis C virus
Hepatitis C virus [40] = assay: Antiviral activity against HCV genotype 1a H77 in HCV replicon cells assessed as reduction in viral RNA replication by luciferase reporter gene assay
Genome polyprotein = Genome polyprotein (GB virus-B, UniProt Q69422); assay: Inhibition of GBV-B NS3 protease
Genome polyprotein, sequence (Q69422 941-1564 limits assumed): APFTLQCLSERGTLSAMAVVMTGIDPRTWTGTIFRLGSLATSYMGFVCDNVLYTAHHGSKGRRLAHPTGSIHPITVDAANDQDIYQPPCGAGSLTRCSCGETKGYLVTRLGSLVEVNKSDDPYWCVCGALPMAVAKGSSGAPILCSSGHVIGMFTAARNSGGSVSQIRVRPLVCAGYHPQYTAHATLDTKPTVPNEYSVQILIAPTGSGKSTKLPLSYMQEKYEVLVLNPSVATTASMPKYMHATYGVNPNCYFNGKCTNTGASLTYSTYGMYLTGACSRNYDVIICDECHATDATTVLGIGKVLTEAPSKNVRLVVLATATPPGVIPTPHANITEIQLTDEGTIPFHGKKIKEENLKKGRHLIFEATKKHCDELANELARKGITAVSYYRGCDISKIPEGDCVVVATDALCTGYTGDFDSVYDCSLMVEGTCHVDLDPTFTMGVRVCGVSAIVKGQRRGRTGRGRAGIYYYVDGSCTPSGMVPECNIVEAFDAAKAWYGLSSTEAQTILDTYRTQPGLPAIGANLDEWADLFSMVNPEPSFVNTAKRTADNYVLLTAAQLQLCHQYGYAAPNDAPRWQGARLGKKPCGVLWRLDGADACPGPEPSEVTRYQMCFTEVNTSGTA

[41] = Drug uptake in rabbit heart atrium measured after 60 mins; format: ADME, Oryctolagus cuniculus, Cardiac atrium; settings: read-out: Drug uptake

COc1cnc(O[C@@H]2C[C@@H](C(=O)N[C@]3(C(=O)NS(=O)(=O)C4CC4)C[C@H]3C3CC3)N(C(=O)[C@@H](NC(=O)O[C@H](C)C(F)(F)F)C3CCCCC3)C2)c2cc(Cl)ccc12
EC50 (Hepatitis C virus [1]): 4.5 nM
half-life [2]: 1.08 h
IC50 [3]: 1400 nM
IC50 [4]: 220 nM
half-life [5]: 8.6 h
bioavailability [6]: 86.4%
AUC at 24 h [7]: 21.1 µM·h
concentration at 24 h [8]: 51 µM
half-life [9]: 5.1 h
clearance [10]: 4.3 mL/min/kg
bioavailability [11]: 57.5%
AUC at 24 h [12]: 8.3 µM·h
half-life [13]: 6.1 h
clearance [14]: 9.4 mL/min/kg
bioavailability [15]: 15.4%
AUC at 24 h [16]: 4.4 µM·h
Activity [17]: -3%
CC50 [18]: 8000 to 14000 nM
CC50 [19]: 8000 to 14000 nM
CC50 [20]: 8000 to 14000 nM
CC50 [21]: 8000 to 14000 nM
Activity (Salmonella typhimurium): Non-Toxic
Activity (Rattus norvegicus): Non-Toxic
inhibition (Homo sapiens): 46.4%
Activity [22]: Non-Toxic
EC50 [23]: 562 nM
Activity [24]: Non-Toxic
Activity [25]: Toxic
Activity [26]: Non-Toxic
Activity [27]: Non-Toxic
Activity [28]: Non-Toxic
Activity [29]: Non-Toxic
Activity [30]: Non-Toxic
Activity [31]: Non-Toxic
IC50 [32]: 1.5 nM
IC50 [33]: 1.6 nM
IC50 [34]: 38 nM
IC50 [35]: 6 nM
IC50 [36]: 4.1 nM
IC50 [37]: 3.4 nM
EC50 [38]: 2.8 nM
EC50 [39]: 1650 nM
EC50 (Hepatitis C virus [40]): 4.5 nM
IC50 (Genome polyprotein): > 25000 nM
concentration at 1 h [41]: 204 µM

Reference: ChEMBL document CHEMBL3861981 (J Med Chem, 2016)
